According to patent US10787442B2, “Modulators of indoleamine 2,3-dioxygenase” (GLAXOSMITHKLINE INTELLECTUAL PROPERTY DEVELOPMENT LIMITED, priority 2016, dated 2020):

Test system: human peripheral blood mononuclear cells (PBMC)
Experiment: PBMC cytotoxicity assay (CellTiter-Glo)
Type: cell-based
Conditions: cytotoxicity in stimulated PBMC, recorded as pCC50
Description: Compounds of the present invention were tested via high-throughput cellular assays utilizing detection of kynurenine via mass spectrometry and cytotoxicity as end-points. […] Compounds with IDO1 inhibitory properties decreased the amount of kynurenine produced by the cells via the tryptophan catabolic pathway. Cellular toxicity due to the effect of compound treatment was measured using CellTiter-Glo® reagent (CTG) (Promega Corporation, Madison, Wis.), which is based on luminescent detection of ATP, an indicator of metabolically active cells.
In preparation for the assays, test compounds were serially diluted 3-fold in DMSO from a typical top concentration of 1 mM or 5 mM and plated at 0.5 μL in 384-well, polystyrene, clear bottom, tissue culture treated plates with lids (Greiner Bio-One, Kremsmünster, Austria) to generate 11-point dose response curves. Low control wells (0% kynurenine or 100% cytotoxicity) contained either 0.5 μL of DMSO in the presence of unstimulated (−IFN-γ/−LPS) PBMCs for the mass spectrometry assay or 0.5 μL of DMSO in the absence of cells for the cytotoxicity assay, and high control wells (100% kynurenine or 0% cytotoxicity) contained 0.5 μL of DMSO in the presence of stimulated (+IFN-γ/+LPS) PBMCs for both the mass spectrometry and cytotoxicity assays.
Frozen stocks of PBMCs were washed and recovered in RPMI 1640 medium (Thermo Fisher Scientific, Inc., Waltham, Mass.) supplemented with 10% v/v heat-inactivated fetal bovine serum (FBS) (Thermo Fisher Scientific, Inc., Waltham, Mass.), and 1× penicillin-streptomycin antibiotic solution (Thermo Fisher Scientific, Inc., Waltham, Mass.). The cells were diluted to 1,000,000 cells/mL in the supplemented RPMI 1640 medium. 50 μL of either the cell suspension, for the mass spectrometry assay, or medium alone, for the cytotoxicity assay, were added to the low control wells, on the previously prepared 384-well compound plates, resulting in 50,000 cells/well or 0 cells/well respectively. IFN-γ and LPS were added to the remaining cell suspension at final concentrations of 100 ng/ml and 50 ng/ml respectively, and 50 μL of the stimulated cells were added to all remaining wells on the 384-well compound plates. The plates, with lids, were then placed in a 37° C., 5% CO2 humidified incubator for 2 days.
Following incubation, the 384-well plates were removed from the incubator and allowed to equilibrate to room temperature for 30 minutes. For the cytotoxicity assay, CellTiter-Glo® was prepared according to the manufacturer's instructions, and 40 μL were added to each plate well. After a twenty minute incubation at room temperature, luminescence was read on an EnVision® Multilabel Reader (PerkinElmer Inc., Waltham, Mass.). For the mass spectrometry assay, 10 μL of supernatant from each well of the compound-treated plates were added to 40 μL of acetonitrile, containing 10 μM of an internal standard for normalization, in 384-well, polypropylene, V-bottom plates (Greiner Bio-One, Kremsmünster, Austria) to extract the organic analytes. Following centrifugation at 2000 rpm for 10 minutes, 10 μL from each well of the acetonitrile extraction plates were added to 90 μL of sterile, distilled H2O in 384-well, polypropylene, V-bottom plates for analysis of kynurenine and the internal standard on the RapidFire 300 (Agilent Technologies, Santa Clara, Calif.) and 4000 QTRAP MS (SCIEX, Framingham, Mass.). MS data were integrated using Agilent Technologies' RapidFire Integrator software, and data were normalized for analysis as a ratio of kynurenine to the internal standard.

| SMILES | PBMC_TOX PXC50 |
| --- | --- |
| CC(C)CN(CCC(F)(F)F)c1ncc([C@H](C)CC(=O)O)cc1Nc1ccc(Cl)cn1 [Example 76, (3R)-3-{5-[(5-chloropyridin-2-yl)amino]-6-[(2-methylpropyl)(3,3,3-trifluoropropyl)amino]pyridin-3-yl}butanoic acid] | <5.0 |
| Cc1nsc(Nc2cc([C@H](C)CC(=O)O)cnc2N(CC(C)C)C2CCCCC2)n1 [Example 16, (R)-3-(6-(cyclohexyl(isobutyl)amino)-5-((3-methyl-1,2,4-thiadiazol-5-yl)amino)pyridin-3-yl)butanoic acid] | <5.2 |
| Cc1nc(Nc2cc([C@H](C)CC(=O)O)cnc2N(CC(C)C)C2CCOCC2)ccc1Cl [Example 69, (3R)-3-{5-[(5-chloro-6-methylpyridin-2-yl)amino]-6-[(2-methylpropyl)(oxan-4-yl)amino]pyridin-3-yl}butanoic acid] | <5.0 |
| CC(C)CN(c1ncc([C@H](C)CC(=O)O)cc1Nc1nc(Cl)ns1)C1CC(F)(F)C1 [Example 81] | <5.0 |
| CC(C)CN(c1ncc([C@H](C)CC(=O)O)cc1Nc1nc(C(F)(F)F)c[nH]1)C1CCOCC1 [Example 48, (3R)-3-{6-[(2-methylpropyl)(oxan-4-yl)amino]-5-{[4-(trifluoromethyl)-1H-imidazol-2-yl]amino}pyridin-3-yl}butanoic acid] | <5.0 |
| CC(C)CN(c1ncc([C@H](C)CC(=O)O)cc1Nc1ccc(Cl)c(C#N)n1)C1CCOCC1 [Example 70, (3R)-3-{5-[(5-chloro-6-cyanopyridin-2-yl)amino]-6-[(2-methylpropyl)(oxan-4-yl)amino]pyridin-3-yl}butanoic acid] | <5.0 |
| COCc1nnc(Nc2cc([C@H](C)CC(=O)O)cnc2N(CC(C)C)C2CCOCC2)s1 [Example 49, (3R)-3-(5-{[5-(methoxymethyl)-1,3,4-thiadiazol-2-yl]amino}-6-[(2-methylpropyl)(oxan-4-yl)amino]pyridin-3-yl)butanoic acid] | <5.0 |
| CC(C)CN(c1ncc([C@H](C)CC(=O)O)cc1Nc1nnc(C(N)=O)s1)C1CCCCC1 [Example 63, (3R)-3-{5-[(5-carbamoyl-1,3,4-thiadiazol-2-yl)amino]-6-[cyclohexyl(2-methylpropyl)amino]pyridin-3-yl}butanoic acid] | <5.0 |
| CC(C)CN(c1ncc([C@H](C)CC(=O)O)cc1Nc1ccc(Cl)c(Cl)n1)C1CCOCC1 [Example 68, (3R)-3-{5-[(5,6-dichloropyridin-2-yl)amino]-6-[(2-methylpropyl)(oxan-4-yl)amino]pyridin-3-yl}butanoic acid] | <5.0 |
| Cc1cc(NC(=O)Nc2cc([C@H](C)CC(=O)O)cnc2N(CC(C)C)C2CC3(C2)CN(C(=O)OC(C)(C)C)C3)on1 [Example 61, (3R)-3-[6-({2-[(tert-butoxy)carbonyl]-2-azaspiro[3.3]heptan-6-yl}(2-methylpropyl)amino)-5-{[(3-methyl-1,2-oxazol-5-yl)carbamoyl]amino}pyridin-3-yl]butanoic acid] | <5.0 |
| C[C@H](CC(=O)O)c1cnc(N(CC2CC2)C2CCOCC2)c(Nc2ccc(Cl)cn2)c1 [Example 9, (R)-3-(5-((5-chloropyridin-2-yl)amino)-6-((cyclopropylmethyl)(tetrahydro-2H-pyran-4-yl)amino)pyridin-3-yl)butanoic acid] | <5.0 |
| COCc1nsc(Nc2cc([C@H](C)CC(=O)O)cnc2N(CC(C)C)C2CCCCC2)n1 [Example 15, (R)-3-(6-(cyclohexyl(isobutyl)amino)-5-((3-(methoxymethyl)-1,2,4-thiadiazol-5-yl)amino)pyridin-3-yl)butanoic acid] | <5.5 |
| CC(C)CN(c1ncc([C@H](C)CC(=O)O)cc1Nc1n[nH]c(C(F)(F)F)n1)C1CCOCC1 [Example 42, (3R)-3-{6-[(2-methylpropyl)(oxan-4-yl)amino]-5-{[5-(trifluoromethyl)-1H-1,2,4-triazol-3-yl]amino}pyridin-3-yl}butanoic acid] | <5.0 |
| CO[C@H]1CC[C@H](N(CC(C)C)c2ncc([C@H](C)CC(=O)O)cc2Nc2ccc(Cl)cn2)CC1 [Example 27, (R)-3-(5-((5-chloropyridin-2-yl)amino)-6-(isobutyl((1r,4R)-4-methoxycyclohexyl)amino)pyridin-3-yl)butanoic acid] | <5.0 |
| CC(C)CN(c1ncc([C@H](C)CC(=O)O)cc1Nc1ccc(C(N)=O)nn1)C1CCOCC1 [Example 73, (3R)-3-{5-[(6-carbamoylpyridazin-3-yl)amino]-6-[(2-methylpropyl)(oxan-4-yl)amino]pyridin-3-yl}butanoic acid] | <5.0 |
| CC(C)CN(c1ncc(C(C)CC(=O)O)cc1Nc1nc(C2CC2)ns1)C1CCOCC1 (stereo not drawn) [Example 37, 3-{5-[(3-cyclopropyl-1,2,4-thiadiazol-5-yl)amino]-6-[(2-methylpropyl)(oxan-4-yl)amino]pyridin-3-yl}butanoic acid] | <5.0 |
| CC(C)CN(c1ncc([C@H](C)CC(=O)O)cc1Nc1n[nH]c(C#N)n1)C1CCOCC1 [Example 43, (3R)-3-{5-[(5-cyano-1H-1,2,4-triazol-3-yl)amino]-6-[(2-methylpropyl)(oxan-4-yl)amino]pyridin-3-yl}butanoic acid] | <5.0 |
| CO[C@H]1CC[C@@H](N(CC(C)C)c2ncc([C@H](C)CC(=O)O)cc2Nc2nc(C(F)(F)F)ns2)CC1 [Example 22, (R)-3-(6-(isobutyl((1s,4S)-4-methoxycyclohexyl)amino)-5-((3-(trifluoromethyl)-1,2,4-thiadiazol-5-yl)amino)pyridin-3-yl) butanoic acid] | <5.4 |
